Reference: article PMC12396409, “Screening and hit evaluation of a microbial metabolite library against the pathogenic Plasmodium falciparum and Toxoplasma gondii parasites” (International Journal for Parasitology: Drugs and Drug …, 2025)
Like-named read-outs stand apart in the source and are kept apart here.

How the values were obtained:
[1] = test system: T. gondii RH strain (RH-Tub-eYFP) tachyzoites; experiment: microbe, parasite or virus in culture; type: cell-based, Toxoplasma gondii; conditions: 72 h, 72 h; for percent parasite growth at 2 µg/mL: Toxoplasma gondii
[2] = test system: P. falciparum 3D7 parasites; experiment: P. falciparum growth inhibition assay, 2-cycle (120 h treatment), delayed-death screen and dose-response; type: cell-based, Plasmodium falciparum; conditions: for activity at 2 µg/mL: Plasmodium falciparum, 3D7, 120 h
[3] = test system: P. falciparum 3D7 parasites; experiment: P. falciparum growth inhibition assay, 1-cycle (72 h treatment), SYBR DNA staining (library screen at 2 μg/mL and dose-response); type: cell-based, Plasmodium falciparum; conditions: for activity at 2 µg/mL: Plasmodium falciparum, 3D7, 72 h
[4] = library screen at 2 μg/mL, % growth, replicate 1, read-out: Tg_72h_%Growth_Rep1
[5] = library screen at 2 μg/mL, % growth, replicate 2, read-out: Tg_72h_%Growth_Rep2
[6] = library screen at 2 μg/mL, 120 h, % growth, replicate 1, read-out: Pf_120h_%Growth_Rep1
[7] = library screen at 2 μg/mL, 120 h, % growth, replicate 2, read-out: Pf_120h_%Growth_Rep2
[8] = library screen at 2 μg/mL, 72 h, % growth, replicate 1, read-out: Pf_72h_%Growth_Rep1
[9] = library screen at 2 μg/mL, 72 h, % growth, replicate 2, read-out: Pf_72h_%Growth_Rep2
[10] = T. gondii, parasite screen at 2 μg/mL, % growth, replicate 1
[11] = T. gondii, parasite screen at 2 μg/mL, % growth, replicate 2
[12] = P. falciparum 3D7, 120 h, parasite screen at 2 μg/mL, % growth, replicate 1
[13] = P. falciparum 3D7, 120 h, parasite screen at 2 μg/mL, % growth, replicate 2
[14] = P. falciparum 3D7, 72 h, parasite screen at 2 μg/mL, % growth, replicate 1
[15] = P. falciparum 3D7, 72 h, parasite screen at 2 μg/mL, % growth, replicate 2
[16] = T. gondii, screen at 2 μg/mL, replicate 1
[17] = T. gondii, screen at 2 μg/mL, replicate 2
[18] = P. falciparum, 120 h, screen at 2 μg/mL, replicate 1
[19] = P. falciparum, 120 h, screen at 2 μg/mL, replicate 2
[20] = P. falciparum, 72 h, screen at 2 μg/mL, replicate 1
[21] = P. falciparum, 72 h, screen at 2 μg/mL, replicate 2

`CCCCc1ccc(C(=O)O)nc1` [Fusaric acid] showed a percent parasite growth at 2 µg/mL [1, 4] of 118%, a percent parasite growth at 2 µg/mL [1, 5] of 83.8% and an activity at 2 µg/mL [2, 6] of 80.2%. It also gave an activity at 2 µg/mL [2, 7] of 85%, an activity at 2 µg/mL [3, 8] of 78% and an activity at 2 µg/mL [3, 9] of 31.2%.
`CCC(=O)CCCCC[C@@H]1NC(=O)[C@H]2CCCCN2C(=O)[C@H]([C@@H](C)CC)NC(=O)[C@H](Cc2cn(OC)c3ccccc23)NC1=O` [Apicidin] showed a percent parasite growth at 2 µg/mL [1, 4] of 6.14%, a percent parasite growth at 2 µg/mL [1, 5] of 0.42% and an activity at 2 µg/mL [2, 6] of 2.31%. It also gave an activity at 2 µg/mL [2, 7] of -15.8%, an activity at 2 µg/mL [3, 8] of 1.42% and an activity at 2 µg/mL [3, 9] of 5.38%.
Compound `O=C(O)CC[N+](=O)[O-]` [BIA-N1694] has a Tg_72h_%Growth_Rep1 [1, 10] of 133.03%, a Tg_72h_%Growth_Rep2 [1, 11] of 105.32% and a Pf_120h_%Growth_Rep1 [2, 12] of 78.14%. It also gave a Pf_120h_%Growth_Rep2 [2, 13] of 7.96%, a Pf_72h_%Growth_Rep1 [3, 14] of 75.60% and a Pf_72h_%Growth_Rep2 [3, 15] of 92.27%.
`CC(=O)N[C@H]1CCOC1=O` [Acetyl-L-homoserine lactone] showed a Tg_72h_%Growth_Rep1 ([1]; library screen at 2 μg/mL, % growth, replicate 1) of 88.39%, a Tg_72h_%Growth_Rep2 ([1]; library screen at 2 μg/mL, % growth, replicate 2) of 103.34% and a Pf_120h_%Growth_Rep1 ([2]; library screen at 2 μg/mL, 120 h, % growth, replicate 1) of 2.96%. For the same compound, the Pf_120h_%Growth_Rep2 ([2]; library screen at 2 μg/mL, 120 h, % growth, replicate 2) was 5.45%, the Pf_72h_%Growth_Rep1 ([3]; library screen at 2 μg/mL, 72 h, % growth, replicate 1) was 5.19% and the Pf_72h_%Growth_Rep2 ([3]; library screen at 2 μg/mL, 72 h, % growth, replicate 2) was 20.05%.
`CCC(=O)[C@@H](C)[C@@H](O)[C@H](C)C[C@@H](C)[C@H]1OC(=O)C[C@@]2(O)CC=C(C)[C@H](O2)/C(C)=C/CCC[C@@H](O[C@H]2C[C@@H](O)[C@H](O)[C@@H](C)O2)/C=C/[C@H](C)C[C@H]1C` [Venturicidin B] gave a Tg_72h_%Growth_Rep1 [1, 16] of 0.31%, a Tg_72h_%Growth_Rep2 [1, 17] of 1.90% and a Pf_120h_%Growth_Rep1 [2, 18] of 23.65%. For the same compound, the Pf_120h_%Growth_Rep2 [2, 19] was 5.91%, the Pf_72h_%Growth_Rep1 [3, 20] was 25.34% and the Pf_72h_%Growth_Rep2 [3, 21] was 5.57%.
Work on `CC=C(C)c1c(Cl)c(OC)c(C)c2c1Oc1c(Cl)c(O)c(Cl)c(C)c1C(=O)O2` [BIA-N1157] yielded a Tg_72h_%Growth_Rep1 [1, 10] of 96.79%, a Tg_72h_%Growth_Rep2 [1, 11] of 78.56% and a Pf_120h_%Growth_Rep1 [2, 12] of 89.90%. For the same compound, the Pf_120h_%Growth_Rep2 [2, 13] was 141.00%, the Pf_72h_%Growth_Rep1 [3, 14] was 86.70% and the Pf_72h_%Growth_Rep2 [3, 15] was 91.20%.
Work on `CC(=O)O[C@@H]1CC(=O)OC(C)(C)[C@H]2CC[C@@]3(C)[C@@H](CC=C(C)[C@]34C[C@]3(OC(C)=C(C)C3=O)C(=O)O4)[C@@]21C` [Setosusin] yielded a Tg_72h_%Growth_Rep1 ([1]; T. gondii, parasite screen 2 μg/mL, % growth, replicate 1) of 121.79%, a Tg_72h_%Growth_Rep2 ([1]; T. gondii, parasite screen 2 μg/mL, % growth, replicate 2) of 85.10% and a Pf_120h_%Growth_Rep1 ([2]; P. falciparum, 120 h, parasite screen 2 μg/mL, % growth, replicate 1) of 76.96%. For the same compound, the Pf_120h_%Growth_Rep2 ([2]; P. falciparum, 120 h, parasite screen 2 μg/mL, % growth, replicate 2) was 104.05%, the Pf_72h_%Growth_Rep1 ([3]; P. falciparum, 72 h, parasite screen 2 μg/mL, % growth, replicate 1) was 71.51% and the Pf_72h_%Growth_Rep2 ([3]; P. falciparum, 72 h, parasite screen 2 μg/mL, % growth, replicate 2) was 99.05%.
For `CC1=CCC2CC(CC3(CCC(C)C(C)O3)O2)OC(=O)C2C=C(C)C(O)C3OCC(=CC=CC(C)C1)C23O` (stereo not drawn) [BIA-M1051], the Tg_72h_%Growth_Rep1 [1, 10] was 114.92%, the Tg_72h_%Growth_Rep2 [1, 11] was 98.32% and the Pf_120h_%Growth_Rep1 [2, 12] was 10.36%. The Pf_120h_%Growth_Rep2 [2, 13] was 24.90%, the Pf_72h_%Growth_Rep1 [3, 14] was 47.24% and the Pf_72h_%Growth_Rep2 [3, 15] was 1.70%.
`O=C1N[C@@H](Cc2ccccc2)C(=O)N2CCC[C@@H]12` [Cyclo(L-Phe-L-Pro)] showed a Tg_72h_%Growth_Rep1 [1, 16] of 128.14%, a Tg_72h_%Growth_Rep2 [1, 17] of 102.31% and a Pf_120h_%Growth_Rep1 [2, 18] of 82.75%. For the same compound, the Pf_120h_%Growth_Rep2 [2, 19] was 99.85%, the Pf_72h_%Growth_Rep1 [3, 20] was 92.82% and the Pf_72h_%Growth_Rep2 [3, 21] was 90.35%.
